Results published in patent publication US9512128B2 (BAYER CROPSCIENCE AG, priority 2012, dated 2016).

Key:
[1] = system: greenhouse red spider mite (Tetranychus urticae); assay: Tetranychus urticae spray test, OP-resistant (TETRUR); type: in vivo; conditions: application rate 500 g/ha, after 6 days, bean leaf discs
Procedure, shortened: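 Bean leaf discs infested with all stages of an OP-resistant strain are sprayed with compound in acetone/DMF with alkylaryl polyglycol ether emulsifier, diluted in water; % mortality after 6 days (100% = all mites killed).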

[2] = system: southern root-knot nematode (Meloidogyne incognita); assay: Meloidogyne incognita test (MELGIN); type: in vivo; conditions: application rate 20 ppm, after 14 days, lettuce
Procedure, shortened: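 Compound in acetone diluted with water, added to sand with M. incognita egg/larvae suspension and lettuce seeds. Root galls assessed after 14 days; effect in % where 100% means no galls and 0% equals untreated control.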

[3] = system: green peach aphid (Myzus persicae); assay: Myzus persicae spray test (MYZUPE); type: in vivo; conditions: application rate 500 g/ha, after 6 days, Chinese cabbage leaf discs
Protocol: 1. Myzus persicae Spray Test (MYZUPE)
• Solvents: 78 parts by weight of acetone • 1.5 part by weight of dimethylformamide • Emulsifier: 0.5 part by weight of alkylaryl polyglycol ether
To produce a suitable preparation of active compound, 1 part by weight of active compound is mixed with the stated amounts of solvents and emulsifier, and the concentrate is diluted with emulsifier-containing water to the desired concentration.
Discs of Chinese cabbage leaves (Brassica pekinensis) infested by all stages of the green peach aphid (Myzus persicae) are sprayed with an active compound preparation of the desired concentration.
After 6 days, the efficacy in % is determined. 100% here means that all of the aphids have been killed; 0% means that no aphids have been killed.

[4] = log P by HPLC on reversed-phase columns (C 18), EEC directive 79/831 Annex V.A8; type: physicochemical
Procedure, shortened: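 Measured by reversed-phase C18 HPLC (LC-MS) with a linear 10→95% acetonitrile gradient. Acidic: pH 2.7, 0.1% formic acid. Neutral: pH 7.8, 0.001 M ammonium bicarbonate.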

[5] = system: cattle ticks (Boophilus microplus); assay: Boophilus microplus injection test (BOOPMI Inj); type: in vivo; conditions: 20 μg/animal, injection into the abdomen, assessed after 7 days
Protocol: 6. Boophilus microplus Injection Test (BOOPMI Inj)
• Solvent: dimethyl sulphoxide
To produce a suitable preparation of active compound, 10 mg of active compound are mixed with 0.5 ml of solvent, and the concentrate is diluted with solvent to the desired concentration.
1 μl of the active compound solution is injected into the abdomen of 5 fed adult female cattle ticks (Boophilus microplus). The animals are transferred into dishes and kept in a climate-controlled room.
The activity is assessed after 7 days by laying of fertile eggs. Eggs whose fertility is not visible from the outside are stored in a climate-controlled cabinet until the larvae hatch after about 42 days. An efficacy of 100% means that none of the ticks has laid any fertile eggs; 0% means that all eggs are fertile.

Compound	efficacy in % (spider mites killed) [1]	nematicidal effect in % (formation of galls) [2]	efficacy in % (aphids killed) [3]	logP[a] ([4]; method [a])	logP[b] ([4]; method [b])	efficacy in % (laying of fertile eggs) [5]
CCn1cnc2c(=O)n(-c3cc(SCC(F)(F)F)c(C)cc3F)cnc21 [Compound 53]	90%	100%	90%	2.46	2.41	
Cc1cc(F)c(-n2c(C)nc3nn(C)cc3c2=O)cc1[S+]([O-])CC(F)(F)F (stereo not drawn) [Compound 175]	100%		100%			
CCn1ncc2c(=O)n(-c3cc(SCC(F)(F)F)c(C)cc3F)c(C)nc21 [Compound 125]	100%		100%			
Cc1cc(F)c(-n2cnc3nn(C)c(C)c3c2=O)cc1[S+]([O-])CC(F)(F)F (stereo not drawn) [Compound 172]	90%		90%			100%
